Laboratory results published in patent publication US12194027B2, “Small molecule inhibitors of GPCR GPR68 and related receptors for treating cancer, glioblastoma, and other indications” (UNIVERSITY OF MARYLAND, BALTIMORE, priority 2019, dated 2025).

What was measured:
Spheroids = assay: pH dependent tumoroid growth; type: cell-based; conditions: pH 6.2 vs pH 8 buffered media, 3 days
Description: Spheroids were formed over 3 days using low attachment 96-well round bottom plates and then treated with DMSO or OGM2 in either pH 8 buffered media or pH 6.2 buffered media and grown for 3 days. The size (area) of spheroids was measured in relative area units. […] This increase in growth was abrogated by OGM2.

A549 lung cancer cells [1] = assay: A549 clonogenicity (crystal violet); type: cell-based; conditions: 8 days
Description: A549 lung cancer cells were plated at 300 cells per well in a 6-well plate and on the next day were treated with increasing concentrations of OGM2 for 8 days. The plate was fixed with formalin and stained with crystal violet. See FIG. 25B for results at the indicated concentrations.

A549 lung cancer cells [2] = assay: A549 viability (crystal violet); type: cell-based; conditions: 24 hours
Description: A549 lung cancer cells were plated at different concentrations of cell per well in a 96-well plate. On the following day cells were treated with increasing doses of OGM2. Twenty-four hours later cells viability was assayed with crystal violet and normalized to untreated.

U87 cells = assay: U87 viability with temozolomide plus OGM2; type: cell-based; conditions: 0.5 μM or 5 μM OGM2 with increasing TMZ
Description: U87 cells were treated with increasing concentrations of temozolomide (TMZ) without OGM2 or with 0.5 μM or 5 μM OGM2.

[3] = test system: U87 glioblastoma spheroids; assay: matrix invasion of U87 spheroids in Matrigel, acidified media; type: cell-based
Source text: U87 glioblastoma spheroids were formed in low attachment round bottom plates for 3 days. Spheroids were then covered in Matrigel™, which was allowed to polymerize before treatment with acidified media with or without OGM2. Acidification increased the degree of matrix invasion which is attenuated by OGM2.

MeWo melanoma cell line = assay: scratch assay for migration, MeWo; type: cell-based, human; conditions: OGM 5 μM, EIPA 10 μM, 20 hours
Description: (§1) Cells were grown to confluence and the cells were denuded with a P200 tip. A medium change was done to add fresh medium, remove loose cells and add compounds OGM (5 μM) and EIPA (10 μM). The area of the scratch was observed 20 hours later.
(§2) Since there are numerous parallels are found between neural crest cells and cancer during migration, we examined whether OGM could inhibit the migration of cells in human melanoma cell lines (Oppitz et al., 2007; Schriek et al., 2005; Sinnberg et al., 2018). […] A2058, MeWo and WM115 cells were grown to confluence and a stripe of cells were denuded with a p200 pipette tip “scratch” and rinsed with PBS. Cells were treated with OGM or EIPA, or DMSO and incubated in low serum media. Imaging was done at 30 minutes after “scratch” and then 20 hours afterwards. Areas were then measured and normalized to the initial area.
(§3) Previous studies with the MV3 melanoma cell line have shown that disruption of proton efflux with EIPA inhibition of NHE1 can also reduce melanoma motility (Ludwig et al., 2013; Schneider et al., 2009; Stock et al., 2007, 2005; Stüwe et al., 2007). […] Although the expression of GPR68 and other proton-sensing receptors have been characterized in various skin cancers (Merkel cell carcinoma, dermatofibrosarcoma protuberans, atypical fibroxanthoma, and pleomorphic dermal sarcoma), expression in melanoma cell lines has not investigated (Nassios et al., 2019).

U87 glioblastoma cells = assay: calcium release on acidification in U87 cells (Fluo-8); type: cell-based; conditions: media pH6.4, Fluo-8
Source text: GPR68 is known to signal through Gq which results in a calcium flux out of the Endoplasmic reticulum. U87 glioblastoma cells were stained, using a calcium-sensitive vital dye Fluo-8, and stimulated with acidification of the media to pH6.4. The cells respond to the acidification with a burst of calcium release, this is inhibited by OGM2.

breast (MDA MB231) = assay: viability (cell titer blue), breast cancer cells; type: cell-based; conditions: MDA MB231, 72 hours
Description: (§4) Multiple studies were conducted as discussed herein, but with different cancer type cohorts. Data was extracted from Gene expression omnibus using ProggeneV2. Briefly, probes were prepared using standard Affymetrix™ protocols, and hybridized to Affymetrix™ HG-U133A and HG-U133B arrays. The cohort was separated by High and low expression of GPR68 by above or below the median expression level. Survival of the cohorts was plotted in FIG. 26A. Survival of multiple cancer types including breast (MDA MB231), glioblastoma (U87), and Prostatic Neuroendocrine cancer (PNEC: PC3) is shown in FIG. 26B. Cells were plated in 96-well plates and then treated with increasing doses OGM2. Seventy-two hours later, survival was assayed with cell titer blue. Each cell line was normalized to DMSO treated control.

PANC02 pancreatic cells [4] = assay: PANC02 clonogenicity (crystal violet); type: cell-based; conditions: 7 days
Description: In a third study, PANC02 pancreatic cells were plated at 400 cells per well in a 6-well plate and on the next day were treated with increasing concentrations of OGM2 for 7 days. The plate was fixed with formalin and stained with crystal violet.

A2058 melanoma cell line = assay: scratch assay for migration, A2058; type: cell-based, human; conditions: OGM 5 μM, EIPA 10 μM, 20 hours
Description: as §1, §2, §3

GPR68 [5] = target: T1, GPR68 (Homo sapiens (Human), UniProt Q15743); assay: GPR68 inhibitory activity of OGM analogs (Table 5); type: cell-based
Description: GPCR profiling assays were performed by Millipore (St. Louis, MO) using in cells expressing Gα15, a promiscuous G protein that enhances GPCR coupling to downstream Ca2+ signaling pathways.
Since GPCRs represent >30% of targets for FDA-approved small molecules and are known to modulate cell migration, activity against 158 GPCRs was assessed based on their chemical structures. GPCRs (158) were tested for agonist and antagonist activity at 10 μM. […] Chemical segregation analysis of zebrafish phenotype was conducted to further identify the inhibitory activity responsible for the zebrafish phenotype. […] The identities of the R groups in FIG. 2B are shown below in Table 5.
(§5) Chem1-GPR68 reporter cells were treated with 20 uM OM8345 for 2 hours and then rinsed with HBSS. […] The GPR68 inhibitory activity of OGM analogs segregated with the ability of the molecule to induce the phenotype in zebrafish. Neural crest progenitors labeled with In situ hybridization of FoxD3 show normal formation of the progenitor pool.

GPR68/OGR1 = GPR68/OGR1 (Homo sapiens (Human), UniProt Q15743); assay: inhibition of GPR68/OGR1 in CHEM1-OGR1 cells, Fluo-8 calcium response to acidified media; type: cell-based; conditions: acidified media pH 6.4, Fluo-8
Description: Briefly, the methods were: On the day before the assay 20,000 cells per well of CHEM1-OGR1 cells were plated in 10% DMEM containing 10% FBS and 1% Pen/Strep into a 96 well plate. After 24 hours media was removed and cells were stained with 80 uL Fluo-8 calcium indicator dye according to manufacturer's protocol. After staining cells were treated with 20 uL of 4× concentration of test compounds. Using kinetic imaging in the Lionheart HCS fluorescence intensity was continuously measure at 10 frames per second, for 5 seconds before 100 μL of acidified media was added to the well resulting in a pH of 6.4. A ratio of fluorescence intensities prior to addition and at peak were calculated and averaged. The resulting data were platted and using a 4 parameter logistic regression EC50 for each test compound was determined.

GPR68 [6] = target: T1, GPR68; assay: Chem-1 OGR1/GPR68 recovery assay after inhibitor washout; type: cell-based
Description: Chem-1 OGR1/GPR68 cells from Millipore™ (St. Louis, MO) were plated in 96-well format and stained with Fluo-8. Using the Lionheart FX (Biotek™) a baseline for 3 seconds was observed before the medium was acidified using an automated injector to reach pH 6.8. Cells then were dynamically monitored and change in fluorescence was quantified using Gen5 software (Biotek™). Pretreatment of 10 μM OGM2 for 4 hours was used. Each well was only assayed once at the correct time interval after inhibitor removal.
as §5
Additional experiments, OGM2 resynthesized and used (due to its submicromolar potency and GPR68 specificity) were performed. See FIG. 3A (HNMR of resynthesis of OGM2) and FIG. 3B (LCMS of resynthesis of OGM2). To test the possibility of OGM2 being an irreversible inhibitor, Chem1-OGR1 cells (Millipore™) were incubated with 10 μM OGM2 for 4 hours, and after removing the compound stimulated with pH 6.4 medium. […] Time till 50% max ˜52 minutes. The signal returned back towards baseline uninhibited levels in a rapid and time-dependent manner.

[7] = test system: Prostatic Neuroendocrine cancer (PNEC: PC3); assay: viability (cell titer blue), prostate cancer cells; type: cell-based; conditions: PC3, 72 hours
Description: as §4

PANC02 pancreatic cells [8] = assay: PANC02 scratch migration; type: cell-based; conditions: 10 μM, 24 hours
Description: In a second study, PANC02 pancreatic cells plated and grown to confluence. Using a P200 tip, cells were denuded and allowed to migrate for 24 hours in DMSO or 10 μM OGM2 and imaged.

WM115 melanoma cell line = assay: scratch assay for migration, WM115; type: cell-based, human; conditions: OGM 5 μM, EIPA 10 μM, 20 hours
Description: as §1, §2, §3

T1 sequence (Q15743 whole entry, looked up): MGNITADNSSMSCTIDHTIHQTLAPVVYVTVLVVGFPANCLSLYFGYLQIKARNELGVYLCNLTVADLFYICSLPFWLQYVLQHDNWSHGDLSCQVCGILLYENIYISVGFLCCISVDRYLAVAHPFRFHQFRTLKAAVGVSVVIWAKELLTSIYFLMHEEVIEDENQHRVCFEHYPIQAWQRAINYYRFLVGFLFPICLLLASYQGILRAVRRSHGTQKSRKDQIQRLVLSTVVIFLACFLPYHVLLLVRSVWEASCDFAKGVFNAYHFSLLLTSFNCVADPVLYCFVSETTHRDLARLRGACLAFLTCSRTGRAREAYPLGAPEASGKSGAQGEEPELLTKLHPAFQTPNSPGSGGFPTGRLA
GPR68/OGR1, sequence (Q15743 whole entry): as the sequence (Q15743 whole entry, looked up) above

- IC50 (GPR68 [5]): 710 nM
- EC50 (GPR68/OGR1): 1350 nM
- Time till 50% max (recovery of GPR68 activity) (GPR68 [6]; after 10 μM for 4 hours, washout, pH 6.4 medium): ~52 min
Structure (SMILES): CCc1ccc2c(c1)C1(NN=C(c3ccccc3)S1)C(=O)N2 (centres unmarked) [OGM2]
- increase in spheroid growth at pH 6.2 (Spheroids): abrogated
- clonogenicity (A549 lung cancer cells [1]): reduced the clonogenicity
- toxicity (cell viability) (A549 lung cancer cells [2]): relatively High doses of OGM2 are necessary for toxicity
- cell viability in combination with temozolomide (TMZ) (U87 cells): synergistic result
- degree of matrix invasion [3]: attenuated
- migration in scratch assay (MeWo melanoma cell line): migrated significantly less
- calcium release in response to acidification (U87 glioblastoma cells): inhibited
- viability (breast (MDA MB231)): Reduces Viability
- clonogenicity (PANC02 pancreatic cells [4]): reduced the clonogenicity
- migration in scratch assay (A2058 melanoma cell line): migrated significantly less
- recovery of GPR68 activity after washout (GPR68 [6]; 10 μM for 4 hours, then removed): restored rapidly after washout of inhibitor
- viability [7]: Reduces Viability
- migration (PANC02 pancreatic cells [8]): significantly reduced migration
- migration in scratch assay (WM115 melanoma cell line): migrated significantly less
